Several values for one entry are separate records, joined by “and”; a condition that tells them apart may be missing. Equal values may be shown once. Read-outs that look alike come from different tables or passages of the source.
Legend:
bacterial = assay: In vitro bacterial genotoxicity bioassay; format: cell-based
Experimental: (§1) The nonclinical toxicity of Compound 1 was characterized in dose range-finding 7-day and definitive 28-day repeat-dose studies in rats and dogs, and in in vitro bacterial and mammalian genotoxicity bioassays. Compound 1 was also evaluated in definitive neurobehavioral, respiratory and cardiovascular safety pharmacology studies.
Compound 1 was negative in in vitro bacterial and mammalian cell genotoxicity bioassays.

[1] = Hepatocyte stability assay; format: in vitro ADME, mouse; conditions: hepatocytes
Experimental: In the liver microsomal stability assay, CLint was 0.601 mL/min/g liver in mouse, 0.563 mL/min/g liver in rat, 0.315 mL/min/g liver in dog, 0.734 mL/min/g liver in monkey, and 0.639 mL/min/g liver in human. In the hepatocyte stability assay, Compound 1 CLint was 0.373 mL/min/g liver in mouse, 0.285 mL/min/g liver in rat, 1.08 mL/min/g liver in dog, 0.533 mL/min/g liver in monkey, and 0.317 mL/min/g liver in human.

CYP1A2 [2] = assay: Cytochrome P450 induction (mRNA levels) in fresh primary human hepatocytes; format: in vitro ADME
[3] = GLP safety pharmacology: cardiovascular, telemeterized dogs; format: in vivo
Experimental: as §1

CYP2C9 = CYP2C9 (Homo sapiens, UniProt P11712); assay: Cytochrome P450 inhibition in vitro; format: in vitro ADME
CYP2C9, sequence (P11712 whole entry): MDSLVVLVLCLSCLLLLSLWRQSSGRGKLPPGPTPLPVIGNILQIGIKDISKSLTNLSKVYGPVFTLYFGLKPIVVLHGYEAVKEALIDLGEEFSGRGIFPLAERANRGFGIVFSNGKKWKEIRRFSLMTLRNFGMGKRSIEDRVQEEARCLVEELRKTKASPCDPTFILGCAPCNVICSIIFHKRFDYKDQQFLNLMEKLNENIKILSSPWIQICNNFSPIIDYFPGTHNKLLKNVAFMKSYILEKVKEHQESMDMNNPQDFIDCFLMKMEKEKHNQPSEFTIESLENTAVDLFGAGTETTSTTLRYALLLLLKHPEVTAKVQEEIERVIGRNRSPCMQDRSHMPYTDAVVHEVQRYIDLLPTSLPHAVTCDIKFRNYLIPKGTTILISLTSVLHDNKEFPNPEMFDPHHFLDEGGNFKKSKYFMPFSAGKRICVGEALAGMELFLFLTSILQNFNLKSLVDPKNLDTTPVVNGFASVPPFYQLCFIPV
Experimental: (§2) Plasma PK of Compound 1 was characterized in rats and beagle dogs. Toxicokinetic (TK) evaluations of oral Compound 1 were evaluated in repeat-dose studies in rats and dogs. Plasma protein binding was determined in mouse, rat, dog, monkey, and human plasma in vitro. Biotransformation and metabolite profiling of Compound 1 were investigated in vitro using mouse, rat, dog, monkey, and human liver microsomal fractions and hepatocytes and in vivo in rats and dogs. P-glycoprotein (P-gp) and breast cancer resistance protein (BCRP) transporter interaction studies, in vitro experiments evaluating cytochrome P450 (CYP) induction and inhibition by Compound 1, and CYP and glucuronosyltransferase (UGT) substrate specificity studies of Compound 1 were also performed.

CYP1A2 [4] = target: CYP1A2 (Homo sapiens, UniProt P05177); assay: Cytochrome P450 inhibition in vitro; format: in vitro ADME; conditions: low CYP inhibition potential
CYP1A2 (Homo sapiens, UniProt P05177), sequence (P05177 whole entry): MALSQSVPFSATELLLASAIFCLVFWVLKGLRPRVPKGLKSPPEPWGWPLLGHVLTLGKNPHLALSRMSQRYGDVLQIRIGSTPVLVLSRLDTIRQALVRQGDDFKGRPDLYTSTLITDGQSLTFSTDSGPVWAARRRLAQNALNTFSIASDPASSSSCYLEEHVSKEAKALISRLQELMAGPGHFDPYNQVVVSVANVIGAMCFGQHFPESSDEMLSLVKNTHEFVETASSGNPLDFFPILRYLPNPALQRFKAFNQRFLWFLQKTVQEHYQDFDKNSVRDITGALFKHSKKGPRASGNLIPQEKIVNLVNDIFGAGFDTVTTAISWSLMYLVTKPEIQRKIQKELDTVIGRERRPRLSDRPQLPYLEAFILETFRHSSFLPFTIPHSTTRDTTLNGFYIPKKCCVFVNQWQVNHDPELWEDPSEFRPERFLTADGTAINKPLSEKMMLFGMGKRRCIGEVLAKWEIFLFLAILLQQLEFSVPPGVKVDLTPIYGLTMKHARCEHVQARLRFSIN
Experimental: as §2

CYP2D6 = CYP2D6 (Homo sapiens, UniProt P10635); assay: Cytochrome P450 inhibition in vitro; format: in vitro ADME; conditions: low CYP inhibition potential
CYP2D6, sequence (P10635 whole entry): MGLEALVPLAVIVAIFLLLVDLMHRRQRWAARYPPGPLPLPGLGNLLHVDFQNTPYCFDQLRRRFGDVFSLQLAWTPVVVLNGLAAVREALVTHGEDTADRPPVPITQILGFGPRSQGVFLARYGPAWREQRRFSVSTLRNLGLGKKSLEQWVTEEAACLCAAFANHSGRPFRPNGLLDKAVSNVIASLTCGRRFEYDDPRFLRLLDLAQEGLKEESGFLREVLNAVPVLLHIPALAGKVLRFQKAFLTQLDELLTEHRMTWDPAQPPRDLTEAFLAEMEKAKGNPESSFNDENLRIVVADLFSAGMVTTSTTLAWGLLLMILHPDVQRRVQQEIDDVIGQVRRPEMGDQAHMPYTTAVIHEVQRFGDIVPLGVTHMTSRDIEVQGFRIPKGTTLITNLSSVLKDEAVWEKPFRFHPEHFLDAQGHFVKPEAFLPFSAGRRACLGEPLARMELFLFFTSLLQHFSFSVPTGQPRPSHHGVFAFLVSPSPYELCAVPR
Experimental: as §2

MDA-MB-231 = assay: Tumor growth inhibition in xenograft model; format: in vivo, NSG mice
Experimental: (§3) Three human tumor cell lines, NCI-H441, MDA-MB-231, and SNU-5, were selected for use in tumor xenograft studies using athymic nude, NSG and CB.17 SCID mice, respectively. Pharmacodynamic modulation of MET phosphorylation was also measured in the NCI-H441 and SNU-5 xenografts. Tumor-bearing mice were orally dosed once-daily for 14 days (qd×14), and the tumors were resected and processed for MET phosphorylation analysis by Western blot. […]

CYP3A4 = assay: Cytochrome P450 induction (mRNA levels) in fresh primary human hepatocytes; format: in vitro ADME
hERG channel = hERG channel (Homo sapiens, UniProt Q12809); assay: In vitro hERG channel inhibition; format: cell-based
hERG channel, sequence (Q12809 whole entry): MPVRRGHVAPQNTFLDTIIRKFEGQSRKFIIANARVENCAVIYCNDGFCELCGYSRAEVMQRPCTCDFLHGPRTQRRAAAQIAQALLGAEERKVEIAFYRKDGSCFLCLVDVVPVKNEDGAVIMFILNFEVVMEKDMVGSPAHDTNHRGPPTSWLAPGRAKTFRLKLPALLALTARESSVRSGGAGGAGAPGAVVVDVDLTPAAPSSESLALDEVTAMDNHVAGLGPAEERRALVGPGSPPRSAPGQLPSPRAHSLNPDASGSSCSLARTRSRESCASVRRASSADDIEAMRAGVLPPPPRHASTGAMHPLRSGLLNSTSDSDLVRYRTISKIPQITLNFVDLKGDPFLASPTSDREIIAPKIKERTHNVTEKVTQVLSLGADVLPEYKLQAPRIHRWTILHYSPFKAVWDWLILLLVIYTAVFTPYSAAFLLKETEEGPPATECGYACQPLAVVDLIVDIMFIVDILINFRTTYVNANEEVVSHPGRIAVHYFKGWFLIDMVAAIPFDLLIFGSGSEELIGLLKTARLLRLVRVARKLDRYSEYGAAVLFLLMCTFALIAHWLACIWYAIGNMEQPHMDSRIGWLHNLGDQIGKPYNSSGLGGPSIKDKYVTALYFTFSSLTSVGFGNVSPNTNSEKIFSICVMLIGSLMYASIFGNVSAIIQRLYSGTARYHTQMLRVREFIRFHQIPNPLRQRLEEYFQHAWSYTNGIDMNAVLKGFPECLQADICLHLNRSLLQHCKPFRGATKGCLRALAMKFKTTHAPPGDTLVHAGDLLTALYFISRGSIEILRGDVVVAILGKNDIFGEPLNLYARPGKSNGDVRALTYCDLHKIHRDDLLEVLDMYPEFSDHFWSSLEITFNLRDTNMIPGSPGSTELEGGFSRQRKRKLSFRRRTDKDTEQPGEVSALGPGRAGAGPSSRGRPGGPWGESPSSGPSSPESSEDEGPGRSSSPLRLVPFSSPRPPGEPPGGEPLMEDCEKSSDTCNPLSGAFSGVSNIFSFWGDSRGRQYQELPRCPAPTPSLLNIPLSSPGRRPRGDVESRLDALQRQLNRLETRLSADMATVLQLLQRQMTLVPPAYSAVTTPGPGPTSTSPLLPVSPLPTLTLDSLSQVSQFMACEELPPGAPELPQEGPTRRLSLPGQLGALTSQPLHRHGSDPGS

[5] = Repeat-dose toxicity studies (7-day range-finding, definitive 28-day, 14-day recovery); format: in vivo, rats
Experimental: as §1
Following a 2-week recovery phase, increased physeal thickness and tooth degeneration persisted but were less severe. These findings are consistent with an on-target pharmacologic VEGFR inhibition by Compound 1.
These microscopic lesions were fully reversible following a 14-day recovery period, and were associated with correlative reversible changes in clinical chemistry markers of hepatic function (eg, <2-fold increase in AST and <5-fold increase in ALT at 10 mg/kg/day).

MET = MET (Homo sapiens, UniProt P08581); assay: In vivo target modulation: MET phosphorylation by Western blot in SNU-5 xenografts; parameters: endogenous in cells; host or cells: SNU-5 human tumour xenografts in CB.17 SCID mice; species or system CB.17 SCID mice; conditions: for Compound 1 Plasma Exposure: qd × 14, 4 hours after last dose on Day 14
MET, sequence (P08581 25-1390): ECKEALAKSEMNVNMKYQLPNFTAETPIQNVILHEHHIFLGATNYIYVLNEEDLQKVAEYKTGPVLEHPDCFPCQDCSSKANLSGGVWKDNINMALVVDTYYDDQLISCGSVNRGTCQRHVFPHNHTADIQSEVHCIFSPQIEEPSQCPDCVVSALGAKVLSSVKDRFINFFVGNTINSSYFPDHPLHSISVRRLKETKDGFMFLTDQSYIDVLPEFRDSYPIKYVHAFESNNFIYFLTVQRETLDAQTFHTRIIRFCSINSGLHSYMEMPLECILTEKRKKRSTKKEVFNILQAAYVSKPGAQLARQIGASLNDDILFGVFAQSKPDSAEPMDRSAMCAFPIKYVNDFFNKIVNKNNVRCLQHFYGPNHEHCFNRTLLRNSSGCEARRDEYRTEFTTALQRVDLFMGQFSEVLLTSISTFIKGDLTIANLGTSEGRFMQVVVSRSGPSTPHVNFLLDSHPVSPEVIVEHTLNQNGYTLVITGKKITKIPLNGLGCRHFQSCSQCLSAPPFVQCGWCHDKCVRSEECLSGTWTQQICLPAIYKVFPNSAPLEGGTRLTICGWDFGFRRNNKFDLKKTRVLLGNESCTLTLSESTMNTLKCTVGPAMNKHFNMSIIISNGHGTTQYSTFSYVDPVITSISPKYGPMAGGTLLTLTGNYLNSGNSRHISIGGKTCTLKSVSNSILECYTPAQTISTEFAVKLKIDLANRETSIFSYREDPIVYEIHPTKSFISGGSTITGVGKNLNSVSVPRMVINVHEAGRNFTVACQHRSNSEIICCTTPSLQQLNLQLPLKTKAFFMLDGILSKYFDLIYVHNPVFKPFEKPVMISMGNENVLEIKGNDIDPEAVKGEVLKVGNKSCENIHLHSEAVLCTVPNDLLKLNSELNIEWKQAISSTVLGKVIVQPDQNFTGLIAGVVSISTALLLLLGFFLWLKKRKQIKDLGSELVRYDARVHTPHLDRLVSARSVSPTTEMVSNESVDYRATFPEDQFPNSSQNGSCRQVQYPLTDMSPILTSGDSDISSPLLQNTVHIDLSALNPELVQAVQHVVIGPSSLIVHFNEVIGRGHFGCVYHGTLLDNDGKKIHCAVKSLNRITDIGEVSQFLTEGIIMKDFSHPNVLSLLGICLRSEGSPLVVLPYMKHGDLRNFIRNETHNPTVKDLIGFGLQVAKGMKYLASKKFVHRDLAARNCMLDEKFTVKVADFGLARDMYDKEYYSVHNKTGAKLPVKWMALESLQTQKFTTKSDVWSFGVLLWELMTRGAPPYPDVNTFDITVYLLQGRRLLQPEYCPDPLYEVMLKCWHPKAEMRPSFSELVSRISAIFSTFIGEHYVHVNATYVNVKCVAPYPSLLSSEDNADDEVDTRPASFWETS
Experimental: as §3

[6] = tested on: primary human macrophages; assay: Efferocytosis: primary human macrophages cultured with apoptotic Jurkat cells; format: cell-based; conditions: read-out: Cellular IC50 (nM) (n = 2); one row per donor (#1-#5); geometric mean +/− geometric standard deviation
Experimental: In addition, the TAM RTKs are critical in the process of efferocytosis, or the recognition and phagocytosis of apoptotic cells that maintains normal tissue homeostasis. When efferocytosis is inhibited, macrophages engage a proinflammatory activation response. When primary human macrophages are cultured with apoptotic Jurkat cells in the presence of Compound 1, their phagocytic ability was inhibited in a dose dependent manner. In Table 5, the IC50 from 5 independent donors are listed.

[7] = Single-dose plasma PK, IV and oral (PEG 400:EtOH:RO water); format: in vivo, rats
Experimental: as §2
The PK and TK of Compound 1 were assessed in rats and dogs after intravenous (IV; only single dose PK) and oral (PO) administration of Compound 1 in formulations prepared in polyethylene glycol 400 (PEG 400): ethanol (EtOH): reverse osmosis water (RO Water) (45:5:50 v/v/v).
Median time to maximum plasma concentration (Tmax) occurred at approximately 2-3 hours in rats and dogs.
The mean plasma t1/2, z values were approximately 9 hours in rats and 4 hours in dogs. Interspecies scaling based on body weight to predict PK parameters in humans could not be performed because dogs (larger species) cleared Compound 1 faster than rats (smaller species). Therefore, the human PK was projected based on one species (rat). […] This apparent clearance value (CL/F) was used to predict steady-state exposure (AUC and average plasma concentration [Cavg]) in humans for the proposed first-in-human (FIH) starting dose for Study Compound 1-001.

[8] = human, fresh primary human hepatocytes, mRNA induction, read-out: half-maximal effective concentration (EC50)
[9] = 10 mg/kg/day, daily for 4 weeks, reversible
[10] = SNU-5, mouse, po, read-out: p-MET Inhibition %

For `CNC(=O)c1cc2c(Oc3ccc(NC(=O)C4(C(=O)Nc5ccc(F)cc5)CC4)cc3)ccnc2cc1OC` [Compound 1, 1-N′-(4-Fluorophenvl)-1-N-[4-[7-methoxy-6-(methylcarbamovl)quinolin-4-yl]oxyphenyl]cyclopropane-1,1-dicarboxamide], the genotoxicity (bacterial) was “negative”, the CLint [1] was 0.373 mL/min/g liver and the EC50 (CYP1A2 [2]; [8]) was 930 nM. The “maximal induction effect (Emax)” value (CYP1A2 [2]; mRNA, 0.1-100 μM) was 5 fold, the “plasma Cmax relative to hERG channel IC50” value ([3]; 18 mg/kg single dose, Cmax higher than IC50) was “approximately 2 fold” and the Cmax ([3]; dog, plasma, oral, single dose 18 mg/kg, male telemeterized dogs) was about 7 µM. For the same compound, the QTc interval ([3]; male telemeterized dogs, single doses as high as 18 mg/kg) was “no QTc interval prolongation”, the “effect on cardiovascular parameters” value ([3]; single oral doses as high as 18 mg/kg, through 18 hours postdose) was “no significant effect on cardiovascular parameters” and the Ki (CYP2C9) was 7110 nM. For the same compound, the IC50 (CYP1A2 [4]) was over 33000 nM, the IC50 (CYP2D6) was over 33000 nM and the “TGI (%)” value (MDA-MB-231; 3 mg/kg qd × 14 oral, p-value 0.0001) was 73.6%. For the same compound, the “TGI (%)” value (MDA-MB-231; 10 mg/kg qd × 14 oral, p-value <0.0001) was 78.6%, the EC50 (CYP3A4; [8]) was 2980 nM and the “maximal induction effect (Emax)” value (CYP3A4; mRNA, 0.1-100 μM) was 24 fold. The IC50 (hERG channel) was about 4000 nM, the “histopathologic changes in female reproductive tract tissues” value ([5]; 10 mg/kg/day for 4 weeks, appeared reversible) was “increased size and number of regressing corpora lutea in ovarian tissue and a higher frequency of dilated uteri” and the hepatobiliary histologic findings ([5]; 10 mg/kg/day, 4 weeks, minimal to mild severity, fully reversible after 14-day recovery) was “bile duct inflammation and hyperplasia, and individual hepatocyte necrosis”. The “increase in ALT” value [5, 9] was under 5 fold, the “increase in AST” value [5, 9] was under 2 fold and the “reversibility of adverse findings” value ([5]; 14-day non-treatment recovery period) was “partially or completely reversible”. For the same compound, the “highest non-severely toxic dose (HNSTD)” value ([5]; GLP 4-week toxicity study, highest dose tested) was 10 mg/kg qd, the ophthalmic findings ([5]; daily for 4 weeks) was “No adverse ophthalmic findings” and the “histomorphologic findings in bone and teeth” value ([5]; daily for 4 weeks, >3 mg/kg/day, persisted but less severe after 2-week recovery) was “increased physeal thickness of the femur and degeneration of the tooth dentin and enamel”. The “nasal turbinate histologic findings” value ([5]; recovery cohort, 10 mg/kg/day 4 weeks + 14-day non-treatment, females minimal-moderate, males slight-moderate) was “proliferation of nasal turbinate bone”, the “bone marrow microscopic findings” value ([5]; repeat-dose) was “minimal severity decreased bone marrow cellularity” and the “cholesterol and triglyceride levels” value ([5]; repeat-dose) was “Increased cholesterol and triglyceride levels”. For the same compound, the reticulocytes ([5]; repeat-dose) was “transient decreases in reticulocytes”, the spleen findings ([5]; repeat-dose) was “Extramedullary hematopoiesis (minimal) and increased lymphocytes (minimal-slight)” and the “Compound 1 Plasma Exposure” value (MET; 3 mg/kg) was 1.88 µM. The “Compound 1 Plasma Exposure” value (MET; 10 mg/kg) was 7.64 µM, the inhibition at 3 mg/kg (MET; [10]) was 26% and the inhibition at 10 mg/kg (MET; [10]) was 67%. The IC50 [6] was 42.7 nM and 45.1 nM and 44 nM and 96.5 nM and 181 nM, the bioavailability ([7]; rat, plasma, po, 0.09-0.27 mg/kg, read-out: Oral absolute bioavailability) was 62 to 77% and the half-life ([7]; rat, plasma, after oral administration, read-out: terminal phase half-life (t1/2, z)) was 4.5 to 5.3 h. The Tmax ([7]; rat, plasma, single oral dose, read-out: Median time to maximum plasma concentration (Tmax)) was 2 to 3 h, the clearance ([7]; rat, plasma, single-dose IV 0.09-0.27 mg/kg, read-out: mean plasma clearance (CL) (converted)) was 0.39 mL/min/kg and the half-life ([7]; rat, plasma, single-dose IV, read-out: mean plasma t1/2, z (converted)) was about 9 h. For the same compound, the Vd ([7]; rat, plasma, single-dose IV, read-out: mean volume of distribution at steady-state (Vss)) was 0.167 L/kg and the “increase of exposure (Cmax and AUC0-inf) with dose” value ([7]; single oral doses 0.09-0.27 mg/kg) was “approximately dose proportionally”.

Source: patent US12673052B2, “Combinations for the treatment of cancer” (Exelixis, Inc., priority 2020, dated 2026)
